Results as given in DBAASP.
Converted amounts (≈) assume the structure as drawn. “And” between values parts separate entries of the source, which are not always exact repeats. Equal values may be shown once.

Legend:
Assay in all cases: ≥ marks a high value that may be exact or a test limit, other limits are often not marked, values filed in µg/mL are converted to µM
[1] = tested on: Bacillus subtilis ATCC 6633
[2] = tested on: Escherichia coli DH5alpha
[3] = tested on: Escherichia coli ATCC 10536
[4] = tested on: Staphylococcus aureus ATCC 9144
[5] = tested on: Klebsiella pneumoniae ATCC 700603
[6] = tested on: Candida albicans ATCC 90028
[7] = tested on: Enterobacter cloacae ATCC 13047
Candida albicans = tested on: Candida albicans
Aspergillus fumigatus = tested on: Aspergillus fumigatus
[8] = tested on: Staphylococcus aureus ATCC 12600
[9] = tested on: Escherichia coli ATCC 11775
Botrytis cinerea = tested on: Botrytis cinerea
[10] = tested on: Candida albicans ATCC 10231
[11] = tested on: Erwinia amylovora PMV 6076
[12] = tested on: Pseudomonas syringae pv. syringae EPS 94
[13] = tested on: Xanthomonas campestris pv. Vesicatoria 2133-2
[14] = tested on: Escherichia coli ATCC 2592
[15] = tested on: Micrococcus luteus ATCC 9341
[16] = tested on: Candida albicans ATCC 36232
[17] = tested on: Pseudomonas aeruginosa ATCC 9027
[18] = tested on: Streptococcus sanguinis ATCC 49295
[19] = tested on: Streptococcus gordonii ATCC 10558
[20] = tested on: Escherichia coli ATCC 25922
[21] = tested on: Enterococcus faecalis ATCC 29212
[22] = tested on: Streptococcus mutans GS-5
Pseudomonas aeruginosa = tested on: Pseudomonas aeruginosa
Escherichia coli = tested on: Escherichia coli
Streptococcus pyogenes = tested on: Streptococcus pyogenes
Salmonella typhimurium = tested on: Salmonella typhimurium
Proteus vulgaris = tested on: Proteus vulgaris
[23] = tested on: Staphylococcus epidermidis
Bacillus subtilis = tested on: Bacillus subtilis

`CC[C@H](C)[C@H](NC(=O)[C@H](CCCN=C(N)N)NC(=O)[C@@H](NC(=O)[C@@H](NC(=O)[C@@H]1CCCN1C(=O)[C@@H](NC(=O)[C@@H](NC(=O)[C@@H](NC(=O)[C@@H]1CCCN1C(=O)CNC(=O)[C@H](Cc1ccc(O)cc1)NC(=O)[C@H](CCCCN)NC(=O)[C@H](CCCCN)NC(=O)[C@H](Cc1c[nH]c2ccccc12)NC(=O)[C@H](C)NC(=O)[C@H](CCCN=C(N)N)NC(=O)[C@H](CC(C)C)NC(=O)[C@H](C)NC(=O)[C@H](CCCCN)NC(=O)[C@H](CCCN=C(N)N)NC(=O)CNC(=O)[C@H](CC(C)C)NC(=O)[C@H](CO)NC(=O)[C@H](CCCN=C(N)N)NC(=O)[C@H](CC(C)C)NC(=O)CNC(=O)CN)[C@@H](C)CC)[C@@H](C)CC)C(C)C)[C@@H](C)CC)[C@@H](C)CC)C(N)=O` [GGLRSLGRKALRAWKKYGPIIVPIIRI] showed an MIC [1] of 1.5 µM (≈ 4.55 µg/mL), an MIC [2] of 2.6 µM (≈ 7.88 µg/mL) and an MIC [3] of 2.3 µM (≈ 6.97 µg/mL). It also gave an MIC [4] of 3.2 µM (≈ 9.7 µg/mL).

`CC[C@H](C)[C@H](NC(=O)[C@H](C)NC(=O)[C@H](CCCCN)NC(=O)[C@@H](NC(=O)[C@@H](NC(=O)[C@@H](N)C(C)C)[C@@H](C)CC)C(C)C)C(=O)N[C@@H](C)C(=O)N[C@H](C(=O)N[C@@H](CC(C)C)C(=O)N[C@@H](C)C(=O)N[C@@H](CO)C(=O)N[C@@H](CCCCN)C(=O)N[C@@H](CC(C)C)C(=O)N[C@@H](CC(C)C)C(=O)O)[C@@H](C)O` [VIVKAIATLASKLL] gave an MIC [5] of 55.6 µM (≈ 80 µg/mL), an MIC [6] of 27.8 µM (≈ 40 µg/mL) and an MIC [7] of at least 55.6 µM.

In the case of `CC(C)C[C@H](NC(=O)[C@H](Cc1ccccc1)NC(=O)[C@@H]1CCCN1C(=O)[C@H](Cc1c[nH]c2ccccc12)NC(=O)[C@H](Cc1c[nH]c2ccccc12)NC(=O)[C@H](Cc1c[nH]c2ccccc12)NC(=O)[C@@H]1CCCN1C(=O)[C@H](Cc1ccccc1)NC(=O)[C@@H](N)CCCN=C(N)N)C(=O)N[C@@H](CCCN=C(N)N)C(=O)O` [RFPWWWPFLR], the MIC (Candida albicans) is reported as over 671 µM and the MIC (Aspergillus fumigatus) is reported as at least 335 µM.

`CC[C@H](C)[C@H](N)C(=O)N[C@@H](CC(N)=O)C(=O)N1CCC[C@H]1C(=O)N[C@@H](CCCCN)C(=O)N[C@@H](CO)C(=O)N[C@H](C(=O)N[C@@H](CCC(N)=O)C(=O)N[C@@H](CO)C(=O)N[C@@H](CC(C)C)C(=O)N[C@@H](CC(C)C)C(N)=O)C(C)C` [INPKSVQSLL] was tested, and the MIC [8] was at least 200 µM, the MIC [9] was at least 200 µM and the MIC (Botrytis cinerea) was at least 200 µM. For the same compound, the MIC [10] was over 200 µM.

`CC[C@H](C)[C@H](NC(=O)[C@H](CCCCN)NC(=O)[C@H](CCCCN)NC(=O)[C@H](Cc1ccccc1)NC(=O)[C@H](CC(C)C)NC(=O)[C@H](CCCCN)NC(=O)[C@H](CCCCN)NC(=O)[C@H](CC(C)C)NC(=O)[C@H](Cc1ccc(O)cc1)NC(=O)[C@H](CCCCN)NC(=O)[C@H](CC(C)C)NC(=O)[C@@H](NC(=O)[C@H](CCCCN)NC(=O)[C@H](CCCCN)NC(=O)[C@H](Cc1ccccc1)NC(=O)[C@H](CC(C)C)NC(=O)[C@H](CCCCN)NC(=O)[C@@H](N)CCCCN)[C@@H](C)CC)C(=O)N[C@@H](CC(C)C)C(=O)N[C@@H](CCCCN)C(=O)N[C@@H](Cc1ccc(O)cc1)C(=O)N[C@@H](CC(C)C)C(=O)N[C@@H](CCCCN)C(=O)N[C@@H](CC(=O)O)C(=O)N[C@@H](CCC(=O)O)C(=O)N[C@@H](CC(C)C)C(=O)O` [KKLFKKILKYLKKLFKKILKYLKDEL] showed an MIC [11] of 14.1 µM (≈ 46.8 µg/mL), an MIC [12] of 14.1 µM (≈ 46.8 µg/mL) and an MIC [13] of 14.1 µM (≈ 46.8 µg/mL).

In the case of `CC[C@H](C)[C@H](NC(=O)[C@@H](NC(=O)[C@@H]1CCCN1C(=O)[C@H](CO)NC(=O)[C@H](CC(C)C)NC(=O)[C@H](CCCCN)NC(=O)[C@H](CCCCN)NC(=O)[C@H](Cc1ccccc1)NC(=O)[C@H](CC(C)C)NC(=O)[C@H](CCCCN)NC(=O)[C@H](CCCCN)NC(=O)[C@H](C)NC(=O)[C@H](CCCCN)NC(=O)[C@H](CCCCN)NC(=O)[C@H](CCCN=C(N)N)NC(=O)[C@H](Cc1ccccc1)NC(=O)[C@H](CCCN=C(N)N)NC(=O)[C@H](CCCCN)NC(=O)[C@H](C)NC(=O)[C@H](CCCN=C(N)N)NC(=O)CN)C(C)C)C(=O)N1CCC[C@H]1C(=O)N[C@@H](CC(C)C)C(=O)N[C@@H](CC(C)C)C(=O)N[C@@H](Cc1cnc[nH]1)C(=O)N[C@@H](CC(C)C)C(N)=O` [GRAKRFRKKAKKLFKKLSPVIPLLHL], the MIC [2] is reported as 2.9 µM (≈ 8.91 µg/mL), the MIC [3] is reported as 2.9 µM and 7.3 µM and the MIC [4] is reported as 2.7 µM (≈ 8.3 µg/mL).

Work on `CC(C)C[C@H](NC(=O)[C@H](CS)NC(=O)[C@H](Cc1cnc[nH]1)NC(=O)[C@H](C)NC(=O)[C@H](C)NC(=O)[C@H](CS)NC(=O)[C@H](C)NC(=O)[C@H](C)NC(=O)[C@@H](N)CCCCN)C(=O)N[C@@H](Cc1c[nH]c2ccccc12)C(=O)N[C@@H](CCCN=C(N)N)C(N)=O` [KAACAAHCLWR] yielded an MIC [14] of at least 163 µM, an MIC [15] of at least 163 µM and an MIC [16] of at least 163 µM. For the same compound, the MIC [17] was over 163 µM.

For `CC[C@H](C)[C@H](NC(=O)[C@@H](NC(=O)[C@@H]1CCCN1C(=O)[C@H](CO)NC(=O)[C@H](CC(C)C)NC(=O)[C@H](CCCCN)NC(=O)[C@H](CCCCN)NC(=O)[C@H](Cc1ccccc1)NC(=O)[C@H](CC(C)C)NC(=O)[C@H](CCCCN)NC(=O)[C@H](CCCCN)NC(=O)[C@H](C)NC(=O)[C@H](CCCCN)NC(=O)[C@H](CCCCN)NC(=O)[C@H](CCCN=C(N)N)NC(=O)[C@H](Cc1ccccc1)NC(=O)[C@H](CCCN=C(N)N)NC(=O)[C@H](CCCCN)NC(=O)[C@H](Cc1ccccc1)NC(=O)[C@H](CCCN=C(N)N)NC(=O)CN)C(C)C)C(=O)N1CCC[C@H]1C(=O)N[C@@H](CC(C)C)C(=O)N[C@@H](CC(C)C)C(=O)N[C@@H](Cc1cnc[nH]1)C(=O)N[C@@H](CC(C)C)C(N)=O` [GRFKRFRKKAKKLFKKLSPVIPLLHL], the MIC [2] was 2.9 µM (≈ 9.13 µg/mL), the MIC [3] was 3.2 µM and 7.4 µM and the MIC [4] was 2.8 µM (≈ 8.82 µg/mL).

With `CC(C)[C@H](NC(=O)[C@H](CO)NC(=O)[C@H](CCCN=C(N)N)NC(=O)[C@H](CCCN=C(N)N)NC(=O)[C@H](CCCN=C(N)N)NC(=O)[C@H](CCCN=C(N)N)NC(=O)CN)C(=O)N[C@@H](CCC(N)=O)C(=O)N[C@@H](Cc1c[nH]c2ccccc12)C(=O)N[C@@H](CS)C(=O)N[C@@H](C)C(=O)O` [GRRRRSVQWCA] the MIC [18] was at least 101 µM, the MIC [19] was at least 46.6 µM and the MIC [20] was 18.2 µM (≈ 25 µg/mL). It also gave an MIC [21] of 72.8 µM (≈ 100 µg/mL), an MIC [22] of at least 34.9 µM and an MIC (Aspergillus fumigatus) of 5 µM (≈ 6.87 µg/mL).

For `CC(C)C[C@H](NC(=O)[C@H](CCCN=C(N)N)NC(=O)[C@@H]1CCCN1C(=O)[C@H](Cc1cnc[nH]1)NC(=O)[C@@H]1CCCN1C(=O)[C@@H]1CCCN1C(=O)[C@H](CCCN=C(N)N)NC(=O)[C@@H]1CCCN1C(=O)[C@@H]1CCCN1C(=O)[C@H](Cc1cnc[nH]1)NC(=O)[C@@H]1CCCN1C(=O)[C@@H]1CCCN1C(=O)[C@H](CCCN=C(N)N)NC(=O)[C@@H]1CCCN1C(=O)[C@@H]1CCCN1C(=O)[C@H](Cc1cnc[nH]1)NC(=O)[C@@H]1CCCN1C(=O)[C@@H]1CCCN1C(=O)[C@H](CCCN=C(N)N)NC(=O)[C@@H]1CCCN1)C(=O)O` [PRPPHPPRPPHPPRPPHPRL], the MIC (Pseudomonas aeruginosa) was 16 µM (≈ 37.3 µg/mL), the MIC (Escherichia coli) was 0.5 µM (≈ 1.17 µg/mL) and the MIC (Streptococcus pyogenes) was at least 64 µM. The MIC (Salmonella typhimurium) was 0.5 µM (≈ 1.17 µg/mL), the MIC (Proteus vulgaris) was 2 µM (≈ 4.67 µg/mL) and the MIC [23] was at least 64 µM. The MIC (Bacillus subtilis) was at least 64 µM.
